# No end group written: not given here.
# Tests used:
# [1] = tested on: test animals; conditions: treated test animals; e.g. marked hyperlactemia followed by hyperglycemia; cited from earlier work
# [2] = Post-injection plasma pramlintide levels for three subcutaneous doses compared with healthy plasma amylin profile; assay type: in vivo, human
# Description: How well do the recommended mealtime injections of pramlintide mimic the healthy plasma amylin profile? […] In the case of three meals per day, these doses would result in three large boluses of pramlintide that spike well above the levels of plasma amylin measured in healthy adults. FIG. 3 superimposes plasma levels of the three subcutaneous doses of pramlintide (FIG. 2) on the plasma amylin profile in healthy adults (FIG. 1).
# From an efficacy standpoint, the dose limiting effect of nausea caused by pramlintide plasma spikes reduces daily drug exposure below healthy plasma amylin exposure levels. Daily exposure to endogenous hormone and infused drug can be measured by calculating the areas under the curves (AUCs) in FIG. 3.
# [3] = 24-hour plasma profiles of endogenous insulin and amylin in healthy adults, basal/bolus AUC analysis; assay type: in vivo, human; conditions: for In Vivo AUC pM × 24 hr / AUC: endogenous; for In Vivo AUC pM × 24 hr: molar; for AUC: human, in vivo, In Vivo AUC μg/L × 24 hr, corrected for molecular weight
# Description: This difference in bolus/basal ratios was quantified by estimating the AUCs of the basal and bolus components, which would reflect the 24-hour hormone exposures attributable to these components.
# Comparing AUCs results in the discovery that there is a striking difference between hormones with respect to the importance of bolus exposure compared to basal exposure, as summarized in Table 1. […] See the example in Table 1.
# Either this is background amylin expression which been reported in non-beta-cell tissues, or it is nonspecific background noise in the amylin assay. […] The same adjustment should also be made for any background insulin plasma levels.
# The following calculations are presented as an example of how appropriate amylin agonist doses can be determined. This insulin-dependent dosing can be achieved by calculating two separate components of pramlintide dosing: (1) the weight ratio of the daily basal component of amylin-to-insulin; and (2) the weight ratio of the daily bolus component of amylin-to-insulin.
# [4] = T1D patients, same immunometric assay (FIG. 1-D); cited from earlier work
# [5] = ex vivo gram AUC (bioavailability adjusted)
# [6] = in vivo gram AUC (molecular weight adjusted)
# [7] = plasma, healthy adults, based upon AUCs
molecule,measurement,setting,value
Arg18 Pro25 Pro 28-des-Lys1-h-amylin,amylin activity in vivo,[1],show amylin activity in vivo
Arg18 Pro25 Pro28-h-amylin,amylin activity in vivo,[1],show amylin activity in vivo
"Pro28-h-amylin (KCNTATCATQRLANFLVHSSNNFGAILPSTNVGSNTY; ends and bridges not checked; cysteine pairing not given here; UniProt P10997 34-70, looked up, variant S28P) [amylin analogue]",amylin activity in vivo,[1],show amylin activity in vivo
"CC[C@H](C)[C@H](NC(=O)[C@@H]1CCCN1C(=O)CNC(=O)[C@H](Cc1ccccc1)NC(=O)[C@H](CC(N)=O)NC(=O)[C@H](CC(N)=O)NC(=O)[C@H](CO)NC(=O)[C@H](CO)NC(=O)[C@H](Cc1c[nH]cn1)NC(=O)[C@@H](NC(=O)[C@H](CC(C)C)NC(=O)[C@H](Cc1ccccc1)NC(=O)[C@H](CC(N)=O)NC(=O)[C@H](C)NC(=O)[C@H](CC(C)C)NC(=O)[C@H](CCCNC(=N)N)NC(=O)[C@H](CCC(N)=O)NC(=O)[C@@H](NC(=O)[C@H](C)NC(=O)[C@@H]1CSSC[C@H](NC(=O)[C@@H](N)CCCCN)C(=O)N[C@@H](CC(N)=O)C(=O)N[C@@H]([C@@H](C)O)C(=O)N[C@@H](C)C(=O)N[C@@H]([C@@H](C)O)C(=O)N1)[C@@H](C)O)C(C)C)C(=O)N[C@@H](CC(C)C)C(=O)N1CCC[C@H]1C(=O)N1CCC[C@H]1C(=O)N[C@H](C(=O)N[C@@H](CC(N)=O)C(=O)N[C@H](C(=O)NCC(=O)N[C@@H](CO)C(=O)N[C@@H](CC(N)=O)C(=O)N[C@H](C(=O)N[C@@H](Cc1ccc(O)cc1)C(N)=O)[C@@H](C)O)C(C)C)[C@@H](C)O [pramlintide, 25,28,29Pro-h-amylin]",amylin activity in vivo,[1],show amylin activity in vivo
same,"24-hour exposure (relative AUC, endogenous amylin = 100%)","[2]; 90 μg dose, three meals per day (FIG. 4)","achieves the healthy, 24-hour physiological exposure"
same,plasma levels relative to plasma amylin in healthy adults,"[2]; T1D patients, mealtime SC doses three times daily (FIG. 3)",supra-physiological (or pharmacological) plasma levels
Pro25 Val26 Pro 28 Pro29-h-amylin,amylin activity in vivo,[1],show amylin activity in vivo
CC[C@H](C)[C@H](NC(=O)[C@H](C)NC(=O)CNC(=O)[C@H](Cc1ccccc1)NC(=O)[C@H](CC(N)=O)NC(=O)[C@H](CC(N)=O)NC(=O)[C@H](CO)NC(=O)[C@H](CO)NC(=O)[C@H](Cc1c[nH]cn1)NC(=O)[C@@H](NC(=O)[C@H](CC(C)C)NC(=O)[C@H](Cc1ccccc1)NC(=O)[C@H](CC(N)=O)NC(=O)[C@H](C)NC(=O)[C@H](CC(C)C)NC(=O)[C@H](CCCNC(=N)N)NC(=O)[C@H](CCC(N)=O)NC(=O)[C@@H](NC(=O)[C@H](C)NC(=O)[C@@H]1CSSC[C@H](NC(=O)[C@@H](N)CCCCN)C(=O)N[C@@H](CC(N)=O)C(=O)N[C@@H]([C@@H](C)O)C(=O)N[C@@H](C)C(=O)N[C@@H]([C@@H](C)O)C(=O)N1)[C@@H](C)O)C(C)C)C(=O)N[C@@H](CC(C)C)C(=O)N[C@@H](CO)C(=O)N[C@@H](CO)C(=O)N[C@H](C(=O)N[C@@H](CC(N)=O)C(=O)N[C@H](C(=O)NCC(=O)N[C@@H](CO)C(=O)N[C@@H](CC(N)=O)C(=O)N[C@H](C(=O)N[C@@H](Cc1ccc(O)cc1)C(N)=O)[C@@H](C)O)C(C)C)[C@@H](C)O [Amylin],In Vivo AUC pM × 24 hr,[3]; basal component,222.79 pM × 24 hr
same,In Vivo AUC pM × 24 hr,[3]; bolus component,135.19 pM × 24 hr
same,Basal Amylin/Insulin Ratio,[3]; [5],14.8%
same,Bolus Amylin/Insulin Ratio,[3]; [5],4.8%
same,plasma levels as % of insulin levels,"[3]; healthy adults, FIG. 8",less than 5%
same,AUC,[3]; basal component,0.88 ng·h/mL
same,AUC,[3]; bolus component,0.534 ng·h/mL
same,Basal Amylin/Insulin Ratio,[3]; [6],7.4%
same,Bolus Amylin/Insulin Ratio,[3]; [6],2.4%
same,Basal Amylin/Insulin Ratio,[3]; in vivo molar AUC,10.9%
same,Bolus Amylin/Insulin Ratio,[3]; in vivo molar AUC,3.5%
same,Basal as % Total,[3]; [7],62%
same,Bolus/Basal Ratio,[3]; [7],0.6
same,"plasma amylin, average",[4],1.6 pM
des-Lys1-h-amylin,amylin activity in vivo,[1],show amylin activity in vivo
